The text below walks through data of patent US5053070A, “Pyrimidine derivatives, preparation processes thereof, herbicide containing the same, and herbicidal compositions containing the same along with other active ingredient” (Mitsui Toatsu Chemicals, Incorporated, priority 1988, dated 1991).

The structures appear in SMILES notation.

Common to all, as to assay type: in vivo
For test [1], the system named is barnyardgrass. The experiment in a line: Upland foliar application test by mixed formulations (Test 7). To be noted: Echinochloa crus-galli, 720 h, applied alone, 30th day, read-out: Herbicidal effects (%) Barnyardgrass Ea; for pest or weed control at 1000 g/ha: 1 kg/ha; for pest or weed control at 300 g/ha: 0.3 kg/ha. In short, it runs like this: (§1)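 Foliar spray of two-compound mixed emulsion, diluted with water, at 5 l per are via ULV sprayer onto weeds at 2–3 leaf stage in upland soil pots, greenhouse. Effect observed 30 days after spraying. Measured mixture activity (Ea) compared with Colby expected value (Ec) derived from single-ingredient growth inhibition rates.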

Test [2] deals with redroot pigweed. The experiment in a line: Upland foliar application test by mixed formulations, concentration gradient (Test 8). To be noted: Amaranthus retroflexus, 960 h, applied alone, 40th day, read-out: Herbicidal effects Redrood pigweed Ea; for pest or weed control at 100 g/ha: 1 g/a; for pest or weed control at 200 g/ha: 2 g/a. The procedure:
(§2) Resin-made 1/10,000-are pots were filled with the soil of an upland field. Redroot pigweed and johnsongrass were separately seeded and were allowed to germinate in a green house. When each plant grew to the stage of 2-3 leaves, emulsions formulated with concentration gradient from predetermined amounts of two test compounds of different kinds in a similar manner to the method described in Formulation Example 16 was diluted with water to a predetermined dilution rate and then sprayed at an application rate equal to 5 l per are onto the foliage of each plant by means of a pressure-operated ULV (ultra low volume) sprayer. Influence to the weeds were observed on the 40th day after the spray of the herbicides. The results are shown in Table 9, In the table, Ea have the same meanings as in Test 7, and Ea>Ec indicates the existence of synergistic action while Ea<Ec indicates the existence of antagonistic action.

The test system of test [3] is johnsongrass. Described as above. To be noted: Sorghum halepense, 960 h, applied alone, 40th day, read-out: Herbicidal effects Johnsongrass Ea; for pest or weed control at 100 g/ha: 1 g/a; for pest or weed control at 200 g/ha: 2 g/a. The procedure:
as §2

For test [4], the system named is redroot pigweed. The experiment in a line: Upland foliar application test by mixed formulations (Test 7). To be noted: Amaranthus retroflexus, 720 h, applied alone, 30th day, read-out: Herbicidal effects (%) Redrood pigweed Ea; for pest or weed control at 300 g/ha: 0.3 kg/ha; for pest or weed control at 1000 g/ha: 1 kg/ha. In short, it runs like this:
as §1

For `COc1cc(OC)nc(Oc2ccccc2C=NOC2CCCCC2)n1` [Compound No. 3], the pest or weed control at 1000 g/ha in test [1] was 40%.

As to `COc1cc(OC)nc(Oc2ccccc2C=NOCC=C(C)C)n1` [Compound No. 7], the pest or weed control at 100 g/ha in test [2] and in test [3] was 10% in each case. For the same compound, the pest or weed control at 200 g/ha is 50% in test [2] and 20% in test [3]. Moreover, the pest or weed control at 300 g/ha in test [4] and in test [1] was 30% throughout.

In the case of `COc1cc(OC)nc(Oc2ccccc2C=NOCC=Cc2ccccc2)n1` [Compound No. 9], the pest or weed control at 100 g/ha in test [2] and in test [3] was 10% throughout. The pest or weed control at 200 g/ha in test [2] is 30%; in test [3] it was 20%. The pest or weed control at 300 g/ha in test [4] and in test [1] was 50% throughout.

On to `C#CCON=Cc1ccccc1Oc1nc(OC)cc(OC)n1` [Compound No. 13, 0-(2-propynyl)-2-(4,6-dimethoxy-2-pyrimidinyloxy)benzaldoxime], for which the pest or weed control at 100 g/ha in test [2] was 20%; in test [3] it was 30%. In addition, the pest or weed control at 200 g/ha was found to be 40% in test [2] and 50% in test [3]. The pest or weed control at 1000 g/ha in test [4] and in test [1] was 70% throughout.

Regarding `C=C(Cl)CON=Cc1ccccc1Oc1nc(OC)cc(OC)n1` [Compound No. 14], the pest or weed control at 300 g/ha in test [4] and in test [1] was 85% each time.

In the case of `COc1cc(OC)nc(Oc2ccccc2C=NOCc2ccccc2)n1` [Compound No. 15], the pest or weed control at 1000 g/ha in test [4] and in test [1] was 50% in each case.

With `COc1cc(OC)nc(Oc2ccccc2C=NO)n1` [Compound No. 24, 2-(4,6-dimethoxy-2-pyrimidinyloxy)-benzaloxime], the pest or weed control at 300 g/ha in test [4] and in test [1] was 50% throughout.

Consider `COc1cc(OC)nc(Oc2ccccc2C=NOCC=Cc2ccccc2Cl)n1` [Compound No. 27], for which the pest or weed control at 300 g/ha in test [4] and in test [1] was 50% in each case.

Turning to `COc1cc(OC)nc(Oc2ccccc2C=NOCC=Cc2ccc(Cl)cc2)n1` [Compound No. 28], the pest or weed control at 300 g/ha in test [4] and in test [1] was 50% in each case.

With `COc1cc(OC)nc(Oc2ccccc2C=NOCC=Cc2cccc(C)c2)n1` [Compound No. 34, 0-(3-methylcinnamyl)-2-(4,6-dimethoxy-2-pyrimidinyloxy)benzaldoxime], the pest or weed control at 300 g/ha in test [4] and in test [1] was 30% throughout.

`COc1cc(OC)nc(Oc2ccccc2C=NOCC=Cc2ccccc2C)n1` [Compound No. 39]: the pest or weed control at 100 g/ha in test [2] and in test [3] was 10% each time. Also, the pest or weed control at 200 g/ha in test [2] amounted to 30%; in test [3], 20%. The pest or weed control at 300 g/ha in test [4] and in test [1] was 50% throughout.

With `COc1cc(OC)nc(Oc2ccccc2C=NOC(C)C)n1` [compound 6], the pest or weed control at 1000 g/ha in test [4] and in test [1] was 50% throughout.

As for `CC#CCON=Cc1ccccc1Oc1nc(OC)cc(OC)n1` [compound 10], the pest or weed control at 1000 g/ha in test [4] and in test [1] was 10% each time.

For `COc1cc(OC)nc(Oc2ccccc2C=NOCC=CCl)n1` [compound 11], the pest or weed control at 1000 g/ha in test [4] and in test [1] was 30% throughout.

Consider `COc1cc(OC)nc(Oc2ccccc2C=NOCc2cccc(C)c2)n1` [compound 20], for which the pest or weed control at 300 g/ha in test [4] and in test [1] was 30% in each case.

Turning to `COc1cc(OC)nc(Oc2ccccc2C=NOCC=Cc2ccc(Cl)cc2Cl)n1` [compound 30], the pest or weed control at 300 g/ha in test [4] and in test [1] was 40% throughout.

For the compound `COc1cc(OC)nc(Oc2ccccc2C=NOCC=Cc2ccccc2C(F)(F)F)n1` [compound 32], the pest or weed control at 1000 g/ha in test [4] and in test [1] was 50% throughout.

On to `COc1cccc(C=CCON=Cc2ccccc2Oc2nc(OC)cc(OC)n2)c1` [compound 38], for which the pest or weed control at 300 g/ha in test [4] and in test [1] was 50% each time.

As for `COc1cc(OC)nc(Oc2ccccc2C=NOCC=Cc2ccccc2Br)n1` [compound 40], the pest or weed control at 300 g/ha in test [4] and in test [1] was 20% each time.

`COc1cc(OC)nc(Oc2ccccc2C=NOCC#Cc2ccccc2)n1` [compound 42]: the pest or weed control at 300 g/ha in test [4] and in test [1] was 50% each time.
